Results from PubChem BioAssay AID651650 (Sanford-Burnham Center for Chemical Genomics, 2012).
Calls of active or inactive are those of the source.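 The calls were made as follows: active = mean IC50 below 20 µM in each of the two panels, so potent in both; inactive = the rest.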

Molecular target: Neuropilin-1 (Homo sapiens) (UniProt O14786)
Assay: NRP-1 b1b2 CendR peptide binding inhibitors, dose response, biochemical, FP and AlphaScreen panel (AID 651650)
Conditions: NRP-1 b1b2 / RPARPAR peptide binding, FP or AlphaScreen
[1] = AlphaScreen, run 1, individual panel run IC50
[2] = FP, run 1, individual panel run IC50
[3] = FP, run 2, individual panel run IC50

Chain of Neuropilin-1 (Homo sapiens) (O14786 whole entry, looked up): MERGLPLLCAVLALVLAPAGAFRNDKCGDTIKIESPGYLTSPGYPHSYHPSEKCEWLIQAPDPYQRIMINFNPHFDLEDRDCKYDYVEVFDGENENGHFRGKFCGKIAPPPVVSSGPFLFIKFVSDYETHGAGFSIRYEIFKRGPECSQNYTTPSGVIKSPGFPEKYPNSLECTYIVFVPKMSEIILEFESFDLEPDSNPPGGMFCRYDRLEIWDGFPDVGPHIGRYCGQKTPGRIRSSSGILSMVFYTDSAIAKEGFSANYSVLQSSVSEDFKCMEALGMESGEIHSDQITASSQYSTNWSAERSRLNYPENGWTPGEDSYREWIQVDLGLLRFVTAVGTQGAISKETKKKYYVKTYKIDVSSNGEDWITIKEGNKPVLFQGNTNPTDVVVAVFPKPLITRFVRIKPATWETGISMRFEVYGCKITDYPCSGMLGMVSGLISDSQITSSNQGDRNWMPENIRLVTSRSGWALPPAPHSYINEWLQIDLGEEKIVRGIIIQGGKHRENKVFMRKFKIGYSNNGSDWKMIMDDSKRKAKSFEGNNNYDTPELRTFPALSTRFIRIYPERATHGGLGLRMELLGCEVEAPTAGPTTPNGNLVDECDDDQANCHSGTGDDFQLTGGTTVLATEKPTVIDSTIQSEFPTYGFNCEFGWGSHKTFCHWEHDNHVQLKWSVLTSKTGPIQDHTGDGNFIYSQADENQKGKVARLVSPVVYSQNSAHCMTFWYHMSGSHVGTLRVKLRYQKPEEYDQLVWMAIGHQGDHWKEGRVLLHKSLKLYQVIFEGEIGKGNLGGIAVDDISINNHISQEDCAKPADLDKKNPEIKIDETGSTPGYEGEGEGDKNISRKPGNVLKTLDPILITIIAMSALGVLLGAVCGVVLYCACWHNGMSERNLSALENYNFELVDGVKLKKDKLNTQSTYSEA

SMILES | IC50 (AlphaScreen, mean of runs) | IC50 [1] | IC50 (FP, mean of runs) | IC50 [2] | IC50 [3]
CCCN(C(=O)Cn1c(C(F)(F)F)nc2ccccc21)C1CCS(=O)(=O)C1 (stereo not given) | 11.2 µM | 11.2 µM | > 95 µM (inactive) | > 95 µM | > 95 µM
CC(NCCOCCOc1ccccc1)c1ccccc1 (stereo not given) | > 100 µM (inactive) | > 100 µM | > 95 µM (inactive) | > 95 µM | > 95 µM
Cc1ccc(COn2c(-c3ccc(Cl)cc3Cl)nc3ncccc32)cc1 | > 100 µM (inactive) | > 100 µM | > 95 µM (inactive) | > 95 µM | > 95 µM
CCOC(=O)c1c(=O)n(O)c2ccc(OC)cc2[n+]1[O-] | > 100 µM (inactive) | > 100 µM | > 95 µM (inactive) | > 95 µM | > 95 µM
CCC1CCCCN1C(=S)Nc1ccc(OC(F)F)cc1 (stereo not given) | inactive | 32.8 µM | > 95 µM (inactive) | > 95 µM | > 95 µM
Nc1ccc(C(=O)Nc2ccc(Nc3ccncc3)cc2)c([N+](=O)[O-])c1 | 2.27 µM | 2.27 µM | > 95 µM (inactive) | > 95 µM | > 95 µM
C[C@@H](NC(=O)c1nc[nH]c1C(=O)NCc1ccccc1)c1ccccc1 | > 100 µM (inactive) | > 100 µM | > 95 µM (inactive) | > 95 µM | > 95 µM
Cc1ccccc1Oc1ccc2c(c1)[C@@H]1C[C@H](N(C)C(=O)Nc3cc(Cl)cc(Cl)c3)[C@H]([C@H](C)O)C(=O)N1CC2 | 12.3 µM | 12.3 µM | > 95 µM (inactive) | > 95 µM | > 95 µM
Cc1c(CC(=O)O)c(=O)oc2cc(OCc3ccc(F)cc3Cl)ccc12 | > 100 µM (inactive) | > 100 µM | > 95 µM (inactive) | > 95 µM | > 95 µM
CCN(c1ccccc1)S(=O)(=O)c1ccc(C(=O)N(CCCN(C)C)c2nc3cc4c(cc3s2)OCO4)cc1 | inactive | 37.1 µM | > 95 µM (inactive) | > 95 µM | > 95 µM
Cc1ccc(C(=O)NCCCc2ccccc2)c(C)c1 | > 100 µM (inactive) | > 100 µM | > 95 µM (inactive) | > 95 µM | > 95 µM
Cc1cccc(-c2noc(CSc3ccccc3)n2)c1 | > 100 µM (inactive) | > 100 µM | > 95 µM (inactive) | > 95 µM | > 95 µM
O=Cc1ccc(-c2ccccc2C(=O)O)o1 | > 100 µM (inactive) | > 100 µM | > 95 µM (inactive) | > 95 µM | > 95 µM
Cc1[nH]n(-c2ccccc2)c(=S)c1C=Nc1cccc([N+](=O)[O-])c1 | > 100 µM (inactive) | > 100 µM | > 95 µM (inactive) | > 95 µM | > 95 µM
O=C(CCn1c(=O)c2cccn2c2cccnc21)NCc1cccc(Cl)c1 | > 100 µM (inactive) | > 100 µM | > 95 µM (inactive) | > 95 µM | > 95 µM
Cc1onc(-c2ccccc2)c1C(=O)N1CCCC1 | > 100 µM (inactive) | > 100 µM | > 95 µM (inactive) | > 95 µM | > 95 µM
COc1ccc(-c2csc(NC(CO)c3nc4ccccc4n3CCCO)n2)cc1 (stereo not given) | > 100 µM (inactive) | > 100 µM | > 95 µM (inactive) | > 95 µM | > 95 µM
Oc1ccc(-c2nc3ncccn3c2Nc2ccc3c(c2)OCO3)cc1 | > 100 µM (inactive) | > 100 µM | > 95 µM (inactive) | > 95 µM | > 95 µM
CCOc1ccc(/C=C2/Sc3ccc(C(=O)NCC4CCCO4)cc3N(C)C2=O)cc1OC (stereo not given) | > 100 µM (inactive) | > 100 µM | > 95 µM (inactive) | > 95 µM | > 95 µM
c1cc(CNc2ccc3c(c2)OCO3)ccn1 | > 100 µM (inactive) | > 100 µM | > 95 µM (inactive) | > 95 µM | > 95 µM
CC(CN1CCOCC1)OC(=O)c1ccc2c(c1)OCCO2 (stereo not given) | > 100 µM (inactive) | > 100 µM | > 95 µM (inactive) | > 95 µM | > 95 µM
CC(=O)C(=Cc1ccc(Cl)cc1)C(=O)c1ccccc1 | > 100 µM (inactive) | > 100 µM | > 95 µM (inactive) | > 95 µM | > 95 µM
Cc1cnccc1CNC(=O)CC1C(=O)NCCN1CC(C)(C)C (stereo not given) | > 100 µM (inactive) | > 100 µM | > 95 µM (inactive) | > 95 µM | > 95 µM
